Patent US9120820B2, “Fluorescent molecular probes for use in assays that measure test compound competitive binding with SAM-utilizing proteins” (CAYMAN CHEMICAL COMPANY, INCORPORATED, priority 2011, dated 2015)

What was measured:
Assay type in all cases: biochemical
[1] = molecular target: T1, G9a (Homo sapiens, UniProt Q96KQ7); assay: Radiometric methyltransferase assay, G9a; conditions: G9a 200 nM; compound 10 μM, 1 μM, or 0.1 μM; FIG. 13
T1 construct: purchased Cayman 49010353
T1 sequence (Q96KQ7 1-1210): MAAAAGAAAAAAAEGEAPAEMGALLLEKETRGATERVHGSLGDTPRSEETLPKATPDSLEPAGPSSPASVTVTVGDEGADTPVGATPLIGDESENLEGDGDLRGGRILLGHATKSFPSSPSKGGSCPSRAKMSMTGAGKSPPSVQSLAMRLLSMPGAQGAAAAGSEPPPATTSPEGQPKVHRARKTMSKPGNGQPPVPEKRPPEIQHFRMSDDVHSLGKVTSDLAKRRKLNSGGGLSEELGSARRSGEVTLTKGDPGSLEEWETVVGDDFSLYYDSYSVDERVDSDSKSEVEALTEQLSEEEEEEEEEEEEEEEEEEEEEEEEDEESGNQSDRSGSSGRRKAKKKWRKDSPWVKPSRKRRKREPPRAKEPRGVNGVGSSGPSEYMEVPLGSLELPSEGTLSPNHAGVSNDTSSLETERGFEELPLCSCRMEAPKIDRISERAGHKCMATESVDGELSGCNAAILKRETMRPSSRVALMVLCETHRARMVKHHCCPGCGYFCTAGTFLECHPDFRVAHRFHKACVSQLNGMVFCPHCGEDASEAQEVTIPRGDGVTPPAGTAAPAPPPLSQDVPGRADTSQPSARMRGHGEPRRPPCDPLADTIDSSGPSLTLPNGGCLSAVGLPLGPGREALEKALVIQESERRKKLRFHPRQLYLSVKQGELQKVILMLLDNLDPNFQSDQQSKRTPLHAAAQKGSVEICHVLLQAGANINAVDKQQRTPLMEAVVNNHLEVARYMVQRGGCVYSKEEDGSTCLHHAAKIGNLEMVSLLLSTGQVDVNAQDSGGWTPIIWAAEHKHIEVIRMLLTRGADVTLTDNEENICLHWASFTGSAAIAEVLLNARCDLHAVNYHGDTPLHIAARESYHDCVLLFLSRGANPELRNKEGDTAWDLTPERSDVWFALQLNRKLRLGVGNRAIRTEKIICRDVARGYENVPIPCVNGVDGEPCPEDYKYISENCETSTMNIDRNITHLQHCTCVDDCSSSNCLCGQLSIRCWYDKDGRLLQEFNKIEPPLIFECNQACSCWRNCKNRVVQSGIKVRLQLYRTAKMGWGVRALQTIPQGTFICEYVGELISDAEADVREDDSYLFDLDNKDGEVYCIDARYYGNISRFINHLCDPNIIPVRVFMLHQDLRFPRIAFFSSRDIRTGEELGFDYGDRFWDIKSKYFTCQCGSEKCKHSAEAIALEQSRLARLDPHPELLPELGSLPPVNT
Experimental: (§1) Reagents: Compound 16A was prepared by the method described in Example 4 and illustrated in FIG. 5. The Compounds 20A-iv and 20A-iii were prepared according to methods described in Example 6 and illustrated in FIG. 7. Enzymes were obtained from the Cayman Catalog with the exception of PRMT4 and PRMT6, which were produced in baculovirus and purified to near homogeneity using Ni-affinity chromatography. Human core histones were purified from HeLa nuclear pellet per the method of Coté et al. S-adenosylmethionine (SAM) was obtained from Sigma-Aldrich (Cat #A7007) and S-[methyl-3H]-SAM was obtained from Perkin-Elmer ([…]). Methods: […] To this was added enzyme diluted to provide a final assay concentration (GLP: 10 nM; PRMT1: 100 nM; SET7/9: 120 nM; PRDM9: 120 nM; PRMT4: 150 nM; PRMT6: 120 nM; G9a: 200 nM) and the compound was allowed to preincubate for 10 minutes at room temperature. […] Samples were mixed immediately after quenching and transferred to a 96-well GFC Uni-Filter microtiter filter plate (Perkin Elmer, Cat#6005174) that contained 50 μl of 20% TCA. Samples were allowed to precipitate for at least 5 minutes at room temperature. The samples were filtered onto the GFC membrane and washed four times with 100 μl of 10% TCA and once with 100 μl of 95% EtOH. To each well was added 25 μl of MicroScint-20 (Perkin-Elmer Cat#6013621) and samples were analyzed using a TopCount NXT microplate scintillation counter. The experiment was performed one time in duplicate for all compound concentrations tested and in triplicate for the vehicle and no enzyme controls. All data was analyzed in GraphPad Prism (v. 5.04).

[2] = molecular target: T2, PRMT1 (Homo sapiens, UniProt Q99873); assay: Radiometric methyltransferase assay, PRMT1; conditions: PRMT1 100 nM; compound 10 μM, 1 μM, or 0.1 μM; FIG. 13
T2 construct: purchased Cayman
T2 sequence (Q99873 whole entry): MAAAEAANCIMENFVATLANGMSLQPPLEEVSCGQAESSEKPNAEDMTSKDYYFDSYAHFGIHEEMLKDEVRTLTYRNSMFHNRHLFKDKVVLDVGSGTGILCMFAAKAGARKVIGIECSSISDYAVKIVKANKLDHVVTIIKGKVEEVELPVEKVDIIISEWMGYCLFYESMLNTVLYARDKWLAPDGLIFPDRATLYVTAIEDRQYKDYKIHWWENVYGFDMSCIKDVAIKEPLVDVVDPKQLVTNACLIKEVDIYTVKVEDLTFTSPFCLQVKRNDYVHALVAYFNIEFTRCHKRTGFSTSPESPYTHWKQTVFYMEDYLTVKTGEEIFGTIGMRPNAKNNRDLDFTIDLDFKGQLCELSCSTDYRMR
Experimental: as §1

[3] = molecular target: T3, PRDM9 (Homo sapiens, UniProt Q9NQV7); assay: Radiometric methyltransferase assay, PRDM9; conditions: PRDM9 120 nM; compound 10 μM, 1 μM, or 0.1 μM; FIG. 13
T3 construct: purchased Cayman
T3 sequence (Q9NQV7 whole entry, species assumed): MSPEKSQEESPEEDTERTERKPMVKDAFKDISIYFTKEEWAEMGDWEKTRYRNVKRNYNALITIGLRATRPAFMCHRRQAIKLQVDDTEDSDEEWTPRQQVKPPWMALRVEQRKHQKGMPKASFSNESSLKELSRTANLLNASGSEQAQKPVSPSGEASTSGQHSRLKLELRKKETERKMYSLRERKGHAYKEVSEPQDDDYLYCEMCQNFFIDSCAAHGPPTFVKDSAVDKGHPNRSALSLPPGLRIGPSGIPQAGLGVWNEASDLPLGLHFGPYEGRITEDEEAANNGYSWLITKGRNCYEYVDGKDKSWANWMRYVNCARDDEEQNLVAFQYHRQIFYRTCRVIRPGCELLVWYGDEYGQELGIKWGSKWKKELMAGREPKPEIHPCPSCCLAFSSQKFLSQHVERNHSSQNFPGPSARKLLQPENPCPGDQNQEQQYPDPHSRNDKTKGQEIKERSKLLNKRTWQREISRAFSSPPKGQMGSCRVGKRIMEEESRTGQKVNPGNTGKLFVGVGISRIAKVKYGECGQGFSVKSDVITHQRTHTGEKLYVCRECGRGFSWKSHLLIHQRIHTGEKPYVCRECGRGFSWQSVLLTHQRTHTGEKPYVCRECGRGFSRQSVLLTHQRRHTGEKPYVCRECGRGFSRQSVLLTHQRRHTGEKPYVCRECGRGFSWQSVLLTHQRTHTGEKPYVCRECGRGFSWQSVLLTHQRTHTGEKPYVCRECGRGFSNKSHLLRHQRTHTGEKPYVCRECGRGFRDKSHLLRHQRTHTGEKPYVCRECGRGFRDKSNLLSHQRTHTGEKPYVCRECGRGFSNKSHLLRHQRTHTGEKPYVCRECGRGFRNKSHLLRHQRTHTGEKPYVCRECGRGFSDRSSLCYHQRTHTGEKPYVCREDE
Experimental: as §1

| Structure (SMILES) | inhibition of enzymatic activity [1] | inhibition of enzymatic activity [2] | inhibition of enzymatic activity [3] |
| --- | --- | --- | --- |
| CCNC(=O)[C@H]1O[C@@H](n2cnc3c(N)nc(Cl)nc32)[C@H](O)[C@@H]1O [Compound 20A-iii, 2-chloroadenosine-5′-N-ethylcarboxamide] | did not show appreciable inhibition | did not show appreciable inhibition | did not show appreciable inhibition |
| CCNC[C@H]1O[C@@H](n2cnc3c(N)nc(Cl)nc32)[C@H](O)[C@@H]1O [Compound 20A-iv, 2-chloroadenosine-5′-N-ethylamine] | did not show appreciable inhibition | did not show appreciable inhibition | did not show appreciable inhibition |
| CSC[C@H]1O[C@@H](n2cnc3c(N)nc(NCCNC(=O)OC(C)(C)C)nc32)[C@H](O)[C@@H]1O [Compound 16A, tert-butyl (2-((6-amino-9-((2R,3R,4S,5S)-3,4-dihydroxy-5-((methylthio)methyl)tetrahydrofuran-2-yl)-9H-purin-2-yl)amino)ethyl)carbamate] | inhibits | inhibits | inhibits |
